Values of other authors as cited in US6004532A, “Formulation for Tin-^117m /diethylenetriaminepentaacetic acids” (Brookhaven Science Associates, priority 1998, dated 1999).

Experiments:
bone marrow = conditions: for contamination and radiation cystitis risk: therapeutic doses

Compound: O=P([O-])(O)CN(CCN(CP(=O)([O-])O)CP(=O)(O)O)CP(=O)([O-])O.[153Sm+3] [^153 Sm-EDTMP, ^153 Sm ethylenediaminetetramethylenephosphonate]
- myelosuppression (bone marrow; human, in vivo): Reversible myelosuppression
- contamination and radiation cystitis risk (bone marrow): creating contamination risks and potentially causing radiation cystitis
- urinary excretion of radioactivity (therapeutic doses 35 to 210 mCi): large amounts of radioactivity can be excreted in the patient's urine
- duration of pain relief (bone pain; human, in vivo): four to forty
- onset of clinical benefit / pain relief (bone pain; human, in vivo): two
- onset of clinical benefit / symptom relief (frequently) (bone pain; human, in vivo): ≤ 48 h

Compound: ^117m Sn (Sn^4+) diethylenetriaminepentaacetic acid [^117m Sn (Sn^4+) DTPA]
- contamination and radiation cystitis risk (bone marrow): less risk of contamination and radiation cystitis
- bone uptake and retention compared with ^32 P orthophosphate, ^153 Sm-EDTMP, ^186 Re-HEDP, and ^89 SrCl2 (human, in vivo): higher bone uptake and retention
- palliation of bone pain (bone pain; Phase II pilot study, Atkins et al. (1995)): palliation of bone pain
- relief of bone pain in humans (bone pain; particular efficacy at about 9 to about 25 mCi per 70 kg, WO 95/29706): dose-dependent relief of bone pain

Compound: O=[32P](O)(O)O [^32 P orthophosphate]
- onset of pain relief (bone pain; pretreatment with androgen, after administration): five to fourteen
